Results: patent US20250100996A1, “HETEROCYCLOALKYL AND HETEROARYL COMPOUNDS AND PHARMACEUTICAL COMPOSITIONS THAT MODULATE IKZF2” (Plexium, Inc., priority 2021, published 2025)

Assays:
[1] = molecular target: T1, human E3 ligase component cereblon (CRBN) (Homo sapiens, UniProt Q96SW2); test: Cereblon (CRBN) target engagement, NanoBRET TE Intracellular E3 Ligase Assay in transfected HEK-293T cells; settings: read-out: CRBN Binding EC50
T1 construct: host or cells: HEK293T
In short: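 Tracer displacement was read as the 610/450 nm BRET signal after 2 h at 37° C with an 11-point dilution series, typically 10 μM to 100 pM. Live HEK-293T cells expressed NanoLuc fused N-terminal to human CRBN together with DDB1. IC50 was fitted with a four-parameter logistic model.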

IKZF2 (Helios) [2] = molecular target: T2, IKZF2 (Helios) (Homo sapiens, UniProt Q96SW2+Q9UKS7); test: IKZF2 reporter degradation assay (HEK 293T IKZF2-mNeonGreen reporter cell line); assay type: cell-based; settings: @ 1 μM, HEK 293T IKZF2-mNeonGreen reporter, 24 hours incubation; for inhibition at 1 µM: HEK-293T, 24 h
T2 construct: Leu-Asp junction (codons ctcgac before the linker); mScarlet (behind P2A) (C, cleaved yes); expressed in transfected cells
T2 sequence (Q9UKS7 whole entry): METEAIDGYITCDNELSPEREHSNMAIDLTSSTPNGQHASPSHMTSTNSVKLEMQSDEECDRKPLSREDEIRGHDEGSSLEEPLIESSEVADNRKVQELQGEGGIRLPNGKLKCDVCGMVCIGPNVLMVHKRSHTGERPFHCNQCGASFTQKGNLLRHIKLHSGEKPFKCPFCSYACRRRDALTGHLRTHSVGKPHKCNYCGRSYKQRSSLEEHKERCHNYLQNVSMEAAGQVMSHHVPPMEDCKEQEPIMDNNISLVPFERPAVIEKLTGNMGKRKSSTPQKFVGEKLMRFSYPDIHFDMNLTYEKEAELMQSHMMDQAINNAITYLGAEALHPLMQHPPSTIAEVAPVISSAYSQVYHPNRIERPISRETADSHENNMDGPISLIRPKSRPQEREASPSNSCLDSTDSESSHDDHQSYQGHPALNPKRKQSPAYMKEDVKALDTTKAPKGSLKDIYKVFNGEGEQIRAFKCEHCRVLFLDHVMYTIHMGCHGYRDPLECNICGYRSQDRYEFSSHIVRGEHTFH
T2 sequence (Q96SW2 whole entry): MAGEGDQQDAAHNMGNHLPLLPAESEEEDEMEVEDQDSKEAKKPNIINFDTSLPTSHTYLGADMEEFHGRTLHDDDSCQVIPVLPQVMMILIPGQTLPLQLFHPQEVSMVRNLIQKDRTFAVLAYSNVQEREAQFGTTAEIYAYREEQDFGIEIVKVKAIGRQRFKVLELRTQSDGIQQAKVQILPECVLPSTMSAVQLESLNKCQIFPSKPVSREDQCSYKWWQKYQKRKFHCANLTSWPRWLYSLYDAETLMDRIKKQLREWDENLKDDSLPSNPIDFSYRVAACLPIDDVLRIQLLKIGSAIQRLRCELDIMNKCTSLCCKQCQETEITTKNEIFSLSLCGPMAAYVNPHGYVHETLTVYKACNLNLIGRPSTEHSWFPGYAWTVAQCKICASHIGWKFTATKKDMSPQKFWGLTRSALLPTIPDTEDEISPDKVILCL
T2 sequence (Q16531 whole entry partner): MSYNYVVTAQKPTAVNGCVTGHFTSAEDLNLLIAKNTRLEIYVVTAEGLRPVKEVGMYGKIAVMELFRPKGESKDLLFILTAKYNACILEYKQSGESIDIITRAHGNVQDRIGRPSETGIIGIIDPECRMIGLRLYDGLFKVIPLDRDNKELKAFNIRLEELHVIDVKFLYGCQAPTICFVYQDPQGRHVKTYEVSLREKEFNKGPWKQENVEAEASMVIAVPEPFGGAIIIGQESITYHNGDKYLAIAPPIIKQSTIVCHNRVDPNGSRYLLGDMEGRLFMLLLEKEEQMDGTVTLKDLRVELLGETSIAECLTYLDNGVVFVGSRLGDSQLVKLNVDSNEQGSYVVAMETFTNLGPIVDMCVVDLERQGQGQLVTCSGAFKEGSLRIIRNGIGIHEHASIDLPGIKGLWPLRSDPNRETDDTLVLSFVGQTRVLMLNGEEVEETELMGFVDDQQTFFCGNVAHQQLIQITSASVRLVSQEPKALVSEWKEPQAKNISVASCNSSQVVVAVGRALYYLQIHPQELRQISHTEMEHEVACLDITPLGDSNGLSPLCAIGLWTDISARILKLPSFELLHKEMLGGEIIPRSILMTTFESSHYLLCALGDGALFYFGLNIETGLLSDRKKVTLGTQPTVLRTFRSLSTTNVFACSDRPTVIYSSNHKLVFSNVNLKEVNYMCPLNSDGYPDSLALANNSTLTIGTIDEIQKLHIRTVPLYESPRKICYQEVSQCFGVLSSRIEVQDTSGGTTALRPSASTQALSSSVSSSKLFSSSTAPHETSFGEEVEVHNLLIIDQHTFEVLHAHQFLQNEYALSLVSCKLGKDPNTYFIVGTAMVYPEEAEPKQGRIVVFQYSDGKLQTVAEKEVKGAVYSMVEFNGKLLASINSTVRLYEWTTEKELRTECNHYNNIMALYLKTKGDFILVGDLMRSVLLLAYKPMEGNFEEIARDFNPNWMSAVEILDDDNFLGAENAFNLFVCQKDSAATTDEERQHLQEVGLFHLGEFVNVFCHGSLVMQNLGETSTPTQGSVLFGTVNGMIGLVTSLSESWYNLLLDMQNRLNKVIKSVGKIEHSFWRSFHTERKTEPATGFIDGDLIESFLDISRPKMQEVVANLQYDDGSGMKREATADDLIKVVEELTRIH
In short: (§1)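 Cells were seeded overnight and then dosed with DMSO dilutions of compound. After 24 h, the plates were imaged live in the FITC and TRITC channels. The fraction of reporter-positive cells was plotted and fitted to a four-parameter logistic curve to give DC50.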

IKZF2 (Helios) [3] = molecular target: T3, IKZF2 (Helios) (Homo sapiens, UniProt Q9UKS7); test: as above; assay type: cell-based; settings: HEK 293T IKZF2-mNeonGreen reporter, 24 hours incubation
T3 construct: Leu-Asp junction (codons ctcgac before the linker); mScarlet (behind P2A) (C, cleaved yes); expressed in transfected cells
T3 sequence (Q9UKS7 whole entry): as the sequence (Q9UKS7 whole entry) above
T3 sequence (Q96SW2 whole entry, further chain): as the sequence (Q96SW2 whole entry) above
T3 sequence (Q16531 whole entry partner): as the sequence (Q16531 whole entry partner) above
In short: as §1

IKZF3 (Aiolos) = molecular target: T4, IKZF3 (Aiolos) (Homo sapiens, UniProt Q9UKT9); test: IKZF3 reporter degradation assay (HEK 293T IKZF3-mNeonGreen reporter cell line); assay type: cell-based; settings: HEK 293T IKZF3-mNeonGreen reporter, 24 hours incubation; for inhibition at 1 µM: HEK-293T, 24 h
T4 construct: Leu-Asp junction (codons ctcgac before the linker); mScarlet (behind P2A) (C, cleaved yes); expressed in transfected cells
T4 sequence (Q96SW2 whole entry partner): as the sequence (Q96SW2 whole entry) above
T4 sequence (Q16531 whole entry partner): as the sequence (Q16531 whole entry partner) above
T4 sequence (Q9UKT9 whole entry): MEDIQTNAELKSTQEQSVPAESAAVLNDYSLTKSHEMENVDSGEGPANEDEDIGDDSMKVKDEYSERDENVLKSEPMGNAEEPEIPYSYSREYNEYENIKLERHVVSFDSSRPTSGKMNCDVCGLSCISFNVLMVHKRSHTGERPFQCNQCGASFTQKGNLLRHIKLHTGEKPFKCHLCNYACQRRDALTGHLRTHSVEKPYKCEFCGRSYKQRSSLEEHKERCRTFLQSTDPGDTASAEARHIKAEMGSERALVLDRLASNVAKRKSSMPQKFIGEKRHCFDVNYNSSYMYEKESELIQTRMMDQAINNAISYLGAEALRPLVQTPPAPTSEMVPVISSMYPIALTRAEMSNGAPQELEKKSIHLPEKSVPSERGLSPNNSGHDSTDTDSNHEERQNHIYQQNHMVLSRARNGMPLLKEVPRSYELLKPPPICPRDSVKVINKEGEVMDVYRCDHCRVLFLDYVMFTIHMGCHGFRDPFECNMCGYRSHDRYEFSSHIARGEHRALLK
Excerpt: Polycistronic plasmids were constructed for the mammalian expression of fluorescent reporter fusions of human transcription factors IKZF1 (Ikaros), IKZF2 (Helios), and IKZF3 (Aiolos). The respective protein sequences had their C-terminal end joined to a GGGGS linker repeated three times followed by mNeonGreen, P2A sequence, and mScarlet. The DNA sequences of the open reading frames are as follows:
IKZF1, IKZF2, and IKZF3 constructs were cloned into the UCOE Hygromycin expression vectors (Millipore Sigma). Reporter constructs were transfected using cationic lipid reagents into adherent HEK 293T cells and stable integrants were selected by treatment with 200 μg/mL hygromycin B. Clonal populations were obtained from the population of stable integrants either by limiting dilution or fluorescence activated cell sorting.
The clonal stable cell lines were maintained under constant 200 μg/mL hygromycin B selection while being passaged for use in the degradation assays. […] The fluorescence intensity of the IKZF1/2/3-mNeonGreen (FITC channel) and mScarlet (PE channel) reporters were routinely analyzed by flow cytometry to confirm consistent expression levels between experiments.
The IKZF1/IKZF2/IKZF3 degradation assays were carried out by harvesting the HEK 293T reporter cell lines and resuspending the cells in media formulated for reduced background fluorescence (FluoroBrite; Thermo Fisher). The respective cell lines were seeded at a density of 4000 cells/well into black-walled 384-well optical grade assay tissue culture plates. The cells were incubated overnight at 37° C. to allow for attachment to the assay plate. Dilutions of the compounds were prepared in DMSO from 10 mM compound stocks. The assay plates were treated with appropriate concentrations of the compounds by dispensing the DMSO dilutions in quadruplicate wells with an upper limit of 0.5% final DMSO.
After 24 hours incubation with the compounds, the assay plates were imaged on an ImageXpress Pico microscopy system (cells maintained at 37° C. during imaging) to obtain the fluorescent readouts. The assay plates were imaged in the FITC and Tetramethylrhodamine (TRITC) channels to obtain the mNeonGreen fluorescence intensity (reporter degradation data) and mScarlet fluorescence intensity (for cell segmentation). 293T-IKZF1 and 293T-IKZF3 reporter cell lines were imaged with exposures of 500 milliseconds (ms) for both FITC and TRITC channels, while the 293T-IKZF2 reporter cell line was imaged with exposures of 1000 ms for FITC and 1250 ms for TRITC. The resulting data was analyzed with Cell Reporter Xpress software using the 2-channel cell scoring analysis with a “percent positive” readout. The TRITC channel was selected for the “nuclei” segmentation with a threshold of 20 while the FITC channel was selected for the “Marker 1” segmentation and a threshold of 100 for the IKZF1 and IKZF3 reporter lines. […] The minimum segmentation width was set to 6 micrometers and the maximum segmentation width was set to 15 micrometers for all cell lines. The DC50 calculations were determined by regression to best fit four-parameter logistic curves using GraphPad Prism.

T1 sequence (Q96SW2 whole entry): as the sequence (Q96SW2 whole entry) above
T1 sequence (Q16531 whole entry partner): as the sequence (Q16531 whole entry partner) above

| Structure (SMILES) | EC50 [1] | IKZF2 % Degradation @ 1 μM (IKZF2 (Helios) [2]) | DC50 (IKZF2 (Helios) [3]) | DC50 (IKZF3 (Aiolos)) | inhibition at 1 µM (IKZF2 (Helios) [2]) | inhibition at 1 µM (IKZF3 (Aiolos)) |
| --- | --- | --- | --- | --- | --- | --- |
| O=C1CCC(N2Cc3cc(O[C@@H]4CCCC[C@H]4N4CC(c5ccc(C(F)(F)F)cn5)C4)ccc3C2=O)C(=O)N1 (single isomer, unassigned) [Compound 129-B] | 38 nM | 42.4% | 20 nM | > 30000 nM |  |  |
| O=C1CCC(N2Cc3cc(O[C@@H]4CCCC[C@@H]4N4CC(c5ccc6ccccc6n5)C4)ccc3C2=O)C(=O)N1 (single isomer, unassigned) [Compound 91-B] | 5 nM |  | 29 nM | > 30000 nM | 47.3% |  |
| CN(C)C(=O)C1CCN(c2ccc(CN3CCC(O)(c4ccc5c(c4)CN(C4CCC(=O)NC4=O)C5=O)CC3)cc2)CC1 (stereo not shown) [Compound 41-A, 1-(4-((4-(2-(2,6-dioxopiperidin-3-yl)-1-oxoisoindolin-5-yl)-4-hydroxypiperidin-1-yl)methyl)phenyl)-N,N-dimethylpiperidine-4-carboxamide] | 611 nM |  | 482 nM | 456 nM | 37.4% | 18.1% |
| O=C1CCC(N2Cc3cc(O[C@@H]4CCCC[C@H]4N4CC(c5ccc(C(F)(F)F)nc5)C4)ccc3C2=O)C(=O)N1 (single isomer, unassigned) [Compound 125-B] | 65 nM |  | 83 nM | > 30000 nM | 50.9% |  |
| O=C1CCC(N2Cc3cc(O[C@H]4CCCC[C@@H]4N4CC(c5ccc6ccccc6n5)C4)ccc3C2=O)C(=O)N1 (single isomer, unassigned) [Compound 89-B] | 3 nM |  | 2 nM | > 30000 nM | 86.2% |  |
| O=C1CCC(N2Cc3cc(O[C@H]4CCCC[C@@H]4N4CC(c5cncc(Cl)c5)C4)ccc3C2=O)C(=O)N1 (single isomer, unassigned) [Compound 116-B] | 6 nM |  | 4 nM | > 30000 nM | 73.7% |  |
| O=C1CCC(N2Cc3cc(O[C@H]4CCCC[C@@H]4N4CC(c5ccc(C(F)(F)F)cn5)C4)ccc3C2=O)C(=O)N1 (single isomer, unassigned) [Compound 130-B] | 10 nM |  | 5 nM | 44.1 nM | 94.8% | 37.4% |
| O=C1CCC(N2Cc3cc(O[C@H]4CCCC[C@@H]4N4CC(c5ncc(C(F)(F)F)cn5)C4)ccc3C2=O)C(=O)N1 (single isomer, unassigned) [Compound 120-B] | 5 nM |  | 4 nM | > 30000 nM | 69.9% |  |
| O=C1CCC(N2Cc3cc(O[C@@H]4CCCC[C@@H]4N4CC(c5ncncc5Cl)C4)ccc3C2=O)C(=O)N1 (mixture of isomers) [Compound 139-B, Rac-3-(5-(((cis)-2-(3-(5-chloropyrimidin-4-yl)azetidin-1-yl)cyclohexyl)oxy)-1-oxoisoindolin-2-yl)piperidine-2,6-dione] | 35 nM |  | 33 nM | > 30000 nM | 62.4% |  |
| O=C1CCC(N2Cc3cc(O[C@H]4CCCC[C@@H]4N4CC(c5ncc(C6CC6)cn5)C4)ccc3C2=O)C(=O)N1 (single isomer, unassigned) [Compound 134-B] | 5 nM |  | 5 nM | > 30000 nM | 70.4% |  |
| O=C1CCC(N2Cc3cc(O[C@H]4CCCC[C@@H]4N4CC(c5ccc(Cl)cn5)C4)ccc3C2=O)C(=O)N1 (single isomer, unassigned) [Compound 99-B] | 4 nM |  | 6 nM | > 30000 nM | 81.3% |  |
| O=C1CCC(N2Cc3cc(OC4CCCCC4N4CC(C(=O)N5CCCCC5)C4)ccc3C2=O)C(=O)N1 (single isomer, unassigned) [Compound 22-A, 3-(1-oxo-5-((2-(3-(piperidine-1-carbonyl)azetidin-1-yl)cyclohexyl)oxy)isoindolin-2-yl)piperidine-2,6-dione] | 31 nM |  | 11 nM | > 30000 nM | 75.9% |  |
| CC(=O)N1CCC(C2CN([C@H]3CCCC[C@@H]3Oc3ccc4c(c3)CN(C3CCC(=O)NC3=O)C4=O)C2)CC1 (stereo partly drawn) [Compound 12-A, 3-(5-(((1S,2S)-2-(3-(1-acetylpiperidin-4-yl)azetidin-1-yl)cyclohexyl)oxy)-1-oxoisoindolin-2-yl)piperidine-2,6-dione] | 52 nM |  | 12 nM | > 30000 nM | 83.1% |  |
| O=C1CCC(N2Cc3cc(O[C@H]4CCCC[C@@H]4N4CC(c5cncc(Cl)c5)C4)ccc3C2=O)C(=O)N1 (single isomer, unassigned) [Compound 117-B] | 21 nM | 68.4% | 25 nM | > 30000 nM |  |  |

Now from value to compound, other results behind:

| EC50 [1] | IKZF2 % Degradation @ 1 μM (IKZF2 (Helios) [2]) | DC50 (IKZF2 (Helios) [3]) | DC50 (IKZF3 (Aiolos)) | inhibition at 1 µM (IKZF2 (Helios) [2]) | Structure (SMILES) | inhibition at 1 µM (IKZF3 (Aiolos)) |
| --- | --- | --- | --- | --- | --- | --- |
| 3 nM |  | 41 nM | > 30000 nM | 43.9% | O=C1CCC(N2Cc3cc(O[C@H]4CCCC[C@@H]4N4CC(c5ccc6ccccc6n5)C4)ccc3C2=O)C(=O)N1 (mixture of isomers) [Compound 152-B, Rac-3-(1-oxo-5-(((trans)-2-(3-(quinolin-2-yl)azetidin-1-yl)cyclohexyl)oxy)isoindolin-2-yl)piperidine-2,6-dione] |  |
| 12 nM |  | 7 nM | > 30000 nM | 74.9% | O=C1CCC(N2Cc3cc(O[C@@H]4CCCC[C@@H]4N4CC(c5ccc6ccccc6n5)C4)ccc3C2=O)C(=O)N1 (mixture of isomers) [Compound 146-B, Rac-3-(1-oxo-5-(((cis)-2-(3-(quinolin-2-yl)azetidin-1-yl)cyclohexyl)oxy)isoindolin-2-yl)piperidine-2,6-dione] |  |
| 13 nM |  | 34 nM | > 30000 nM | < 30% | O=C1CCC(N2Cc3cc(OC4CCCC4N4CC(c5c[nH]c6ccccc56)C4)ccc3C2=O)C(=O)N1 (stereo not shown) [Compound 181-B, 3-(5-((2-(3-(1H-indol-3-yl)azetidin-1-yl)cyclopentyl)oxy)-1-oxoisoindolin-2-yl)piperidine-2,6-dione] |  |
| 13 nM |  | 9 nM | > 30000 nM | 58.6% | O=C1CCC(N2Cc3cc(O[C@@H]4CCCC[C@@H]4N4CC(c5cc(Cl)ccn5)C4)ccc3C2=O)C(=O)N1 (mixture of isomers) [Compound 165-B, Rac-3-(5-(((cis)-2-(3-(4-chloropyridin-2-yl)azetidin-1-yl)cyclohexyl)oxy)-1-oxoisoindolin-2-yl)piperidine-2,6-dione] |  |
| 18 nM |  | 11 nM | > 30000 nM | 75.5% | O=C1CCC(N2Cc3cc(O[C@@H]4CCCC[C@@H]4N4CC(c5cncc(Cl)c5)C4)ccc3C2=O)C(=O)N1 (mixture of isomers) [Compound 155-B, Rac-3-(5-(((cis)-2-(3-(5-chloropyridin-3-yl)azetidin-1-yl)cyclohexyl)oxy)-1-oxoisoindolin-2-yl)piperidine-2,6-dione] |  |
| 22 nM |  | 130 nM | > 30000 nM | 28.6% | O=C1CCC(N2Cc3cc(OC4CCCC4N4CC(c5ccc(C(F)(F)F)cn5)C4)ccc3C2=O)C(=O)N1 (stereo not shown) [Compound 147-B, 3-(1-oxo-5-((2-(3-(5-(trifluoromethyl)pyridin-2-yl)azetidin-1-yl)cyclopentyl)oxy)isoindolin-2-yl)piperidine-2,6-dione] |  |
